Series [1] deals with German roaches (B. germanica). Kind of series: Two-harborage arena bioassay of sustained release polymer formulations. Type of series: in vivo. Conditions: counted after 24 hours. The text has this:
Evaluation of sustained release formulations: Three cockroach attractants (methyl tiglate, butyl heptanoate, and propyl proprionate) were formulated in one or more polymer formulations (Urethane, Pellethane, Santoprene, and/or Polyethylene) as indicated in Table 4.A sweater box (1.5×2.0×0.5 ft) provided the test arena. The sides of the arena were coated with a blend of mineral oil and Vaseline petroleum jelly. The tops of two 8 oz paper ice cream cups were tapped to the arena floor with masking tape and, prior to the addition of the test cockroaches, inverted cups without holes were fixed to the tapped lids. Twenty-five laboratory reared late stage nymphs or adult male German roaches (B. germanica), starved for 72 hrs, were added to the arena and allowed to calm down (ca. 1 hour). The starting inverted ice cream cups were carefully removed and each ice cream cup top was then supplied with a water tube (1.5 ml scintillation vial with water and stoppered with cotton), one lab chew food pellet, and either a test attractant polymer formulation or the corresponding polymer blank control. […] The cups were oriented so that the holes were facing each other. The number of roaches that sought harborage in the cups was counted after 24 hours by plugging the entrance holes with cotton, the roaches inside euthanized, and the numbers in each cup counted.

Series [2] can be described thus: Release rate of attractants from sustained release delivery systems. Type of series: physicochemical. The text has this:
Several secondary release rate control systems were developed. The first was a sachet that can contain the above polymer releasing system. This sachet can be either polyvinylidine chloride (PvdC) barrier film (e.g., Saranex™) enclosed in a thermally sealed metalized polyethylene container to eliminate release of active compounds, or a metalized polyethylene sachet with a removable seal that covers a vapor diffusion controlling orifice which when removed begins the release process from the internal polymer/carrier, or metalized polyethylene sachet which contains a small vial with a vapor controlling orifice. In the case of the Saranex™ sachet, the actual porosity of the Saranex™ control release is based on type of PVdC and thickness of the film. In the case of the metalized polyethylene sachet and internal polymer/carrier, a specific orifice size controlled the rate of diffusion of the active from the device, as shown in FIG. 4. An additional means of containing and reducing the release of the liquid active compounds and providing a solid support for use in the above delivery system involved sorbing the active compounds into an inert absorbent such as Membrana GmbH's expanded microporous polyolefin Accurel® MP100 which are granular or pelletized polyethylenes that have 10-50 μm air pockets throughout and can contain up to 90% of their volume in active compounds . MP100 was easily loaded with 80% by wt active ingredient due to its porosity. […] Thus, placement into the metalized polyethylene sachet with its diffusion regulating orifice was required.
Active compounds (1 gm active in Accurel® MP100) were sealed within the metalized polyethylene sachet, and a 0.5 mm hole placed into the film, and sealed until use with a metalized tape. Release rates for propyl propanoate, methyl tiglate, and butyl hexanoate were calculated at 15.5, 11.4, and 4.8 mg/day, respectively. Longevity of this system was calculated to be 64, 87, and 208 days, respectively.
Release rates for the thermoset urethane (Flexane® 80P) and synthetic rubbers systems ranged from 0.055 to 0.2 mg/cm^2/day, depending on durometer/hardness that is a measure of polymer crosslinking. Best results were obtained at durometer/hardness levels above D30. Release rates for the Saranex system without the release control provided by the metalized polyethylene and diffusion control orifice were 187, 236, and 7 mg/day for propyl propanoate, methyl tiglate, and butyl hexanoate, respectively.

Setting [3] is: 1 gm active in Accurel MP100 in metalized polyethylene sachet with 0.5 mm hole.
Setting [4] is: 1 gm active in Accurel MP100 in metalized polyethylene sachet with 0.5 mm hole, FIG. 3.
The mark [5] stands for this setting: Saranex system without metalized polyethylene and diffusion control orifice.

For `CCCOC(=O)CC` [Propyl Propanoate], the “attraction to treatment harborage versus polymer blank control (in words)” value in series [1] (formulated in urethane) is “significant attraction and subsequent aggregation”. In addition, the “Longevity of the release system” value in series [2] (setting [3]) is on record as 64 days. Also, the Release rate in series [2] (setting [4]) was 15.5 mg/day; in series [2] (setting [5]), 187 mg/day.
For the compound `C/C=C(\C)C(=O)OC` [methyl tiglate, methyl ester of tiglic acid (trans-2-methyl-2-butenoic acid (methyl tiglate))], the “attraction to treatment harborage versus polymer blank control (in words)” value in series [1] (formulated with Santoprene) is “significant attraction and aggregation”. Moreover, in series [2] (setting [3]), the “Longevity of the release system” value was determined as 87 days. For the same compound, the results for the Release rate in series [2] (setting [4]) and in series [2] (setting [5]) were 11.4 mg/day and 236 mg/day, respectively.

For the origin of these results see patent publication US8273340B2, “Methods and compositions for attracting or repelling cockroaches” (The United States of America, as represented by the …, priority 2008, dated 2012).
